Assay results as given in patent US6825185B2, “Substituted aryl compounds as novel cyclooxygenase-2 selective inhibitors, compositions and methods of use” (NitroMed, Inc., priority 2000, dated 2004).

How the values were obtained:
[1] = biological target: T1, COX-2 (Homo sapiens, UniProt P35354); test: COX-2 enzyme activity in human whole blood (LPS induced, thromboxane B2 EIA); assay type: cell-based; parameters: Human blood (≈50 mL) from male or female donors who had not received any aspirin or NSAIDs for 14 days; endogenous in cells; host or cells: human whole blood from donors, LPS-induced; settings: test compound at 10 μM
T1 sequence (P35354 18-604): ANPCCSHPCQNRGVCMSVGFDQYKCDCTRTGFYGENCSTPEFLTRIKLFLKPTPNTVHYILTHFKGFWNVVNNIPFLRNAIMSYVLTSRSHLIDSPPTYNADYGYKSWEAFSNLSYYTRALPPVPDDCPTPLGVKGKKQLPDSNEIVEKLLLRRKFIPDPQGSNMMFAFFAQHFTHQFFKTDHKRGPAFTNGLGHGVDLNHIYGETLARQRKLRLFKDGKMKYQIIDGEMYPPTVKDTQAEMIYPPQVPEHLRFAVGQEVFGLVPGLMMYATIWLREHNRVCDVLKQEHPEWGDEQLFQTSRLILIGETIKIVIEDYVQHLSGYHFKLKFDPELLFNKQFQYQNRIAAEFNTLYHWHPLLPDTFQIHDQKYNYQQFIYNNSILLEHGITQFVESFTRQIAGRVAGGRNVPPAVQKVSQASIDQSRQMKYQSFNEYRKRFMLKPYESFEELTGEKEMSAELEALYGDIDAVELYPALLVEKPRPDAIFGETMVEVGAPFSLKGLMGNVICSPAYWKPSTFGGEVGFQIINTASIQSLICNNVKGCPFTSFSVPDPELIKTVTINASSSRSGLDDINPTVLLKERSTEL

[2] = biological target: COX-1 (Homo sapiens, UniProt P23219); test: COX-1 enzyme activity in human whole blood (A23187 stimulated, thromboxane B2 EIA); assay type: cell-based; parameters: Human blood (≈50 mL) from male or female donors who had not received any aspirin or NSAIDs for 14 days; endogenous in cells; host or cells: human whole blood from donors; settings: test compound at 100 μM
COX-1, sequence (P23219 24-599): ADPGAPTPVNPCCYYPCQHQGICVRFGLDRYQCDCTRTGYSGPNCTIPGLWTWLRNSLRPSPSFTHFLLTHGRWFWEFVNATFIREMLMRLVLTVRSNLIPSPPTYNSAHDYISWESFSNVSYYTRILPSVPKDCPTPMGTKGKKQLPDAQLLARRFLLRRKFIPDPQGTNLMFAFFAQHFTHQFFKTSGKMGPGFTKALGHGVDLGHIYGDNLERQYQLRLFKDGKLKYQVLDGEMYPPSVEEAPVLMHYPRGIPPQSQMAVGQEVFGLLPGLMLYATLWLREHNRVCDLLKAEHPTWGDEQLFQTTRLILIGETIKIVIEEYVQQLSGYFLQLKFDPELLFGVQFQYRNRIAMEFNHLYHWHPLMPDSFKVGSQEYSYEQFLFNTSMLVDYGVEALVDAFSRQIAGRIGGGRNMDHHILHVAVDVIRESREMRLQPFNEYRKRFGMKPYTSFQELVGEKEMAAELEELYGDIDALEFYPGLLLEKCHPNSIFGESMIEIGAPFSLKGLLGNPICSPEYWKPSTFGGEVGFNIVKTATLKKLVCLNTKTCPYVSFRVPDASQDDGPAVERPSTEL

SMILES | COX-2 Inhibition (% at 10 μM) [1] [%] | COX-1 Inhibition (% at 100 μM) [2] [%]
CS(=O)(=O)c1ccc(-c2cc3c(cc2CC2CCCCC2)OCO3)cc1 [Example 1e, 1-(6-(Cyclohexylmethyl)(2-H-benzo(3,4-d)1,3-dioxolen-5-yl))-4-(methylsulfonyl) benzene] | 90 | 40
CS(=O)(=O)c1ccc(-c2cc3c(cc2C(=O)c2ccccc2)OCO3)cc1 [Example 3d, 6-(4-(Methylsulfonyl)phenyl)(2H-benzo(d)1,3-dioxolan-5-yl) phenyl ketone] | 60 | 75
CS(=O)(=O)c1ccc(-c2cc3c(cc2Cc2cccnc2)OCO3)cc1 [Example 6c, 4-(Methylsulfonyl)-1-(6-(3-pyridylmethyl)(2H-benzo(3,4-d)1,3-dioxolan-5-yl))benzene] | 10 | 20
CS(=O)(=O)c1ccc(-c2cc3c(cc2CN2CCCCC2=O)OCO3)cc1 [Example 9c] | 30 | 35
CS(=O)(=O)c1ccc(-c2cc3c(cc2C=C2CCCC2)OCO3)cc1 [Example 10a, 4-(6-(Cyclopentylidenemethyl)(2H-benzo(3,4-d)1,3-dioxolan-5-yl))-1-(methylsulfonyl)benzene] | 90 | 70
CS(=O)(=O)c1ccc(-c2cc3c(cc2Cc2cc(F)cc(F)c2)OCO3)cc1 [Example 15c, 5-(1-(3′,5′-Difluorophenyl)methyl)-1,2-methylenedioxy-4-(4-methylsulfonylphenyl)benzene] | 85 | 75
